The compounds below were run on Human peripheral blood mononuclear cells (PBMCs) as Responder cells, RPMI 1788 Stimulator cells (assay: Mixed Lymphocyte Reaction (MLR) test). Details: Homo sapiens, RPMI-1788, lowest concentration giving 50% inhibition of the MLR; 6 days coculture, 3H-thymidine incorporation.
Assay type: cell-based
Method: Human peripheral blood mononuclear cells (PBMCs) were isolated from buffy coats, obtained from healthy blood donors by Ficoll (Lymphoprep, Axis-Shield PoC AS, Oslo, Norway) density-gradient centrifugation. The cells at the Ficoll-plasma interface were washed three times and used as “Responder” cells. RPMI 1788 (ATCC, N^o CCL-156) cells were treated with mitomycin C (Kyowa, Nycomed, Brussel, Belgium) and used as “Stimulator” cells. Responder cells (0.12×10^6), Stimulator cells (0.045×10^6) and compounds (in different concentrations) were cocultured for 6 days in RPMI 1640 medium (BioWhittaker, Lonza, Belgium) supplemented with 10% fetal calf serum, 100 U/ml Geneticin (Gibco, LifeTechnologies, UK). Cells were cultured in triplicate in flat-bottomed 96-well microtiter tissue culture plates (TTP, Switzerland). After 5 days, cells were pulsed with 1 μCi of methyl-^3H thymidine (MP Biomedicals, USA), harvested 18 h later on glass filter paper and counted. Proliferation values were expressed as counts per minute (cpm), and converted to % inhibition with respect to a blank MLR test (identical but without added compound). […]
`Nc1nc(N2CCN(C(=O)c3cccnc3)CC2)c2cc(-c3ccc(F)cc3)sc2n1` [Example 346, (4-(2-amino-6-(4-fluorophenyl)thieno[2,3-d]pyrimidin-4-yl)piperazin-1-yl)(pyridin-3-yl)methanone] was tested, and the IC50 was over 10000 nM. `Nc1nc(SCc2ccccc2)c2nc(-c3ccc(F)cc3)sc2n1` [Example 28, 7-(benzylthio)-2-(4-fluorophenyl)thiazolo[5,4-d]pyrimidin-5-amine] was tested, and the IC50 was over 10000 nM. Work on `Cc1cccc(NC(=O)N2CCN(c3nc(N)nc4sc(CCc5ccc(F)cc5)nc34)CC2)c1` [Example 133, 5-amino-2-[2-(4-fluorophenyl)ethyl]-7-(4-m-tolylcarbamoylpiperazin-1-yl)-thiazolo[5,4-d]pyrimidine] yielded an IC50 of over 10000 nM. In the case of `CCOC(=O)c1nc(N2CCN(C(=O)COc3ccc(Cl)cc3)CC2)c2cc(-c3ccc(F)cc3)sc2n1` [Example 353, ethyl 4-(4-(2-(4-chlorophenoxy)acetyl)piperazin-1-yl)-6-(4-fluorophenyl)thieno[2,3-d]pyrimidine-2-carboxylate], the IC50 is reported as over 10000 nM. `Nc1nc(N2CCN(C(=O)COc3ccc(Cl)cc3)CC2)c2nc(SCc3ccccc3)[nH]c2n1` [Example 426, 1-(4-(2-amino-8-(benzylthio)-9H-purin-6-yl)piperazin-1-yl)-2-(4-chlorophenoxy)ethanone] was tested, and the IC50 was 3280 nM. Work on `Nc1nc(N2CCN(C(=O)COc3ccc(Cl)cc3)CC2)c2nc(-c3ccccc3)sc2n1` [Example 215, 1-(4-(5-amino-2-phenylthiazolo[5,4-d]pyrimidin-7-yl)piperazin-1-yl)-2-(4-chlorophenoxy)ethanone] yielded an IC50 of 116 nM. Compound `Nc1nc(N2CCN(Cc3ccccc3)CC2)c2nc(-c3ccc(F)cc3)sc2n1` [Example 39, 7-(4-benzylpiperazin-1-yl)-2-(4-fluorophenyl)thiazolo[5,4-d]pyrimidin-5-amine] has an IC50 of over 10000 nM. In the case of `Nc1nc(N2CCN(C(=O)COc3ccc(Cl)cc3)CC2)c2nc(CCc3ccccc3)oc2n1` [Example 189, 5-amino-2-(2-phenylethyl)-7-[4-(4-chlorophenoxyacetyl)piperazin-1-yl]oxazolo[5,4-d]pyrimidine], the IC50 is reported as 5530 nM. With `Nc1nc(N2CCN(C(=O)COc3ccc(Cl)cc3)CC2)c2nc(C3CC3)sc2n1` [Example 119, 5-amino-2-cyclopropyl-7-[4-(4-chlorophenoxyacetyl)piperazin-1-yl]-thiazolo[5,4-d]pyrimidine] the IC50 was 600 nM. Work on `CCCCCN1CCN(c2nc(N)nc3sc(-c4ccc(F)cc4)nc23)CC1` [Example 37, 2-(4-fluorophenyl)-7-(4-pentylpiperazin-1-yl)thiazolo[5,4-d]pyrimidin-5-amine] yielded an IC50 of over 10000 nM. `Nc1nc(N2CCN(C(=O)COc3ccc(Cl)cc3)CC2)c2nc(-c3ccc(Cl)c(Cl)c3)sc2n1` [Example 116, 5-amino-7-[4-(4-chlorophenoxyacetyl)piperazin-1-yl]-2-(3,4-dichlorophenyl)thiazolo[5,4-d]pyrimidine] was tested, and the IC50 was 5290 nM. Compound `Cc1cccc(NC(=O)N2CCN(c3nc(N)nc4sc(CCc5cccs5)nc34)CC2)c1` [Example 157, 5-amino-2-(2-thiophen-2-ylethyl)-7-(4-m-tolylcarbamoylpiperazin-1-yl)thiazolo[5,4-d]pyrimidine] has an IC50 of 630 nM. `Nc1nc(N2CCN(C(=O)COc3ccc(F)cc3)CC2)c2nc(-c3ccco3)sc2n1` [Example 209, 1-(4-(5-amino-2-(furan-2-yl)thiazolo[5,4-d]pyrimidin-7-yl)piperazin-1-yl)-2-(4-fluorophenoxy)ethanone] gave an IC50 of 55 nM. In the case of `Nc1nc(N2CCOCC2)c2nc(-c3ccc(F)cc3)sc2n1` [Example 33, 2-(4-fluorophenyl)-7-morpholino-thiazolo[5,4-d]pyrimidin-5-amine], the IC50 is reported as over 10000 nM. Compound `COc1cccc(CCc2nc3c(N4CCN(C(=O)COc5ccc(Cl)cc5)CC4)nc(N)nc3s2)c1` [Example 255, 1-(4-(5-amino-2-(3-methoxyphenethyl)thiazolo[5,4-d]pyrimidin-7-yl)piperazin-1-yl)-2-(4-chlorophenoxy)ethanone] has an IC50 of 710 nM. `Nc1nc(N2CCN(C(=O)COc3ccc(Cl)cc3)CC2)c2nc(C3(c4ccc(Cl)cc4)CC3)sc2n1` [Example 117, 5-amino-7-[4-(4-chlorophenoxyacetyl)piperazin-1-yl]-2-(1-(4-chlorophenyl)cyclopropyl)thiazolo[5,4-d]pyrimidine] was tested, and the IC50 was 2510 nM. In the case of `N#Cc1ccc(NC(=O)N2CCN(c3nc(N)nc4sc(CCc5ccc(F)cc5)nc34)CC2)cc1` [Example 229, 4-(5-amino-2-(4-fluorophenethyl)thiazolo[5,4-d]pyrimidin-7-yl)-N-(4-cyanophenyl)piperazine-1-carboxamide], the IC50 is reported as 2660 nM. `Cc1ccc(-c2nc3c(N4CCN(C(=O)COc5ccc(Cl)cc5)CC4)nc(N)nc3[nH]2)cc1` [Example 396, 1-(4-(2-amino-8-p-tolyl-9H-purin-6-yl)piperazin-1-yl)-2-(4-chlorophenoxy)ethanone] was tested, and the IC50 was 470 nM. `Nc1nc(N2CCN(CC(=O)Nc3nccs3)CC2)c2nc(-c3ccc(F)cc3)[nH]c2n1` [Example 417, 2-(4-(2-amino-8-(4-fluorophenyl)-9H-purin-6-yl)piperazin-1-yl)-N-(thiazol-2-yl)acetamide] gave an IC50 of over 10000 nM. `Cc1nc(N2CCN(C(=O)COc3ccc(Cl)cc3)CC2)c2cc(-c3ccc(F)cc3)sc2n1` [Example 325, 2-(4-chlorophenoxy)-1-(4-(6-(4-fluorophenyl)-2-methylthieno[2,3-d]pyrimidin-4-yl)piperazin-1-yl)ethanone] was tested, and the IC50 was 3390 nM. For `Nc1nc(N2CCN(c3nccs3)CC2)c2nc(CCc3ccc(F)cc3)sc2n1` [Example 140, 5-amino-2-[2-(4-fluorophenyl)ethyl]-7-(4-thiazol-2-yl-piperazine-1-yl)-thiazolo[5,4-d]pyrimidine], the IC50 was 8820 nM. `Nc1nc(N2CCN(c3ccc(F)cc3)CC2)c2nc(-c3ccc(F)cc3)[nH]c2n1` [Example 415, 8-(4-fluorophenyl)-6-(4-(4-fluorophenyl)piperazin-1-yl)-9H-purin-2-amine] showed an IC50 of 4160 nM. `Nc1nc(N2CCN(C(=O)COc3ccc(Cl)cc3)CC2)c2nc(C(c3ccc(F)cc3)C3CCCC3)sc2n1` (stereo not shown) [Example 151, 5-amino-2-[cyclopentyl-(4-fluorophenyl)methyl]-7-(4-[2-(4-chlorophenoxy)acetyl]piperazin-1-yl)thiazolo[5,4-d]pyrimidine] showed an IC50 of over 10000 nM. `Cc1cccc(OCC(=O)N2CCN(c3nc(N)nc4sc(-c5ccc(F)cc5)nc34)CC2)c1` [Example 211, 1-(4-(5-amino-2-(4-fluorophenyl)thiazolo[5,4-d]pyrimidin-7-yl)piperazin-1-yl)-2-(m-tolyloxy)ethanone] gave an IC50 of 52 nM. `COc1ccc(OCC(=O)N2CCN(c3nc(N)nc4sc(CCCCc5ccc(F)cc5)nc34)CC2)cc1` [Example 293, 1-(4-(5-amino-2-(4-(4-fluorophenyl)butyl)thiazolo[5,4-d]pyrimidin-7-yl)piperazin-1-yl)-2-(4-methoxyphenoxy)ethanone] showed an IC50 of 930 nM. `Nc1nc(N2CCN(C(=O)COc3ccc(Cl)cc3)CC2)c2cc(-c3ccc(F)cc3)sc2n1` [Example 326, 1-(4-(2-amino-6-(4-fluorophenyl)thieno[2,3-d]pyrimidin-4-yl)piperazin-1-yl)-2-(4-chlorophenoxy)ethanone] was tested, and the IC50 was 700 nM. `COc1cccc(-c2nc3c(N4CCN(C(=O)COc5ccc(Cl)cc5)CC4)nc(N)nc3s2)c1` [Example 124, 5-amino-7-[4-(4-chlorophenoxyacetyl)piperazin-1-yl]-2-(3-methoxyphenyl)thiazolo[5,4-d]pyrimidine] was tested, and the IC50 was 120 nM. `Nc1nc(N2CCN(C(=O)COc3ccc(Cl)cc3)CC2)c2nc(Cc3ccc(Cl)cc3)sc2n1` [Example 122, 5-amino-7-[4-(4-chlorophenoxyacetyl)piperazin-1-yl]-2-(4-chlorophenylmethyl)thiazolo[5,4-d]pyrimidine] was tested, and the IC50 was over 10000 nM. For `Cc1ccc(-c2nc3c(N4CCN(C(=O)COc5ccc(Cl)cc5)CC4)nc(N)nc3s2)cc1` [Example 295, 1-(4-(5-amino-2-p-tolylthiazolo[5,4-d]pyrimidin-7-yl)piperazin-1-yl)-2-(4-chlorophenoxy)ethanone], the IC50 was 350 nM. With `COc1ccc(OCC(=O)N2CCN(c3nc(N)nc4sc(-c5ccccc5)cc34)CC2)cc1` [Example 369, 1-(4-(2-amino-6-phenylthieno[2,3-d]pyrimidin-4-yl)piperazin-1-yl)-2-(4-methoxyphenoxy)ethanone] the IC50 was 72 nM.

Same assay, conditions: lowest concentration giving 50% inhibition of the MLR; 6 days coculture, 3H-thymidine incorporation
Work on `Nc1nc(NCc2ccccc2)c2cc(-c3ccc(F)cc3)sc2n1` [Example 327, 2-amino-4-N-benzylamino-6-(4-fluorophenyl)-thieno[2,3-d]pyrimidine] yielded an IC50 of 6800 nM. Work on `Nc1nc(N2CCN(c3ccncc3)CC2)c2nc(-c3ccc(F)cc3)[nH]c2n1` [Example 419] yielded an IC50 of over 10000 nM. In the case of `COc1ccc(OCC(=O)N2CCN(c3nc(N)nc4sc(-c5ccc(Cl)cc5)nc34)CC2)cc1` [Example 280, 1-(4-(5-amino-2-(4-chlorophenyl)thiazolo[5,4-d]pyrimidin-7-yl)piperazin-1-yl)-2-(4-methoxyphenoxy)ethanone], the IC50 is reported as over 10000 nM. For `Nc1nc(N2CCN(C(=O)COc3ccc(Br)cc3)CC2)c2nc(-c3ccc(F)cc3)sc2n1` [Example 128, 5-amino-2-(4-fluorophenyl)-7-(4-[2-(4-bromophenoxy)acetyl]-piperazin-1-yl)-thiazolo[5,4-d]pyrimidine], the IC50 was 380 nM.
